{"source": "patent US6403627B1", "about": "“Spin trapping pharmaceutical compositions and methods for use thereof” (Oklahoma Medical Research Foundation, priority 1991, dated 2002)", "key": {"[1]": {"test_system": "free radicals produced by adriamycin in heart, brain and other organs", "conditions": "brain and other organs of research animals; cited from earlier work"}, "[2]": {"test_system": "protein oxidation and enzyme activity in aged cells/brain", "conditions": "as early as seven days following initiation of daily treatment; cited from earlier work"}, "Toxicity tests (LD50)": {"test": "Toxicity tests (LD50)", "format": "in vivo", "method": "Exemplary dosages of the parent phenyl t-butyl nitrone administered intravenously range from 0.1 to 10 mg/kg of body weight in animals. […] It is possible to extrapolate from comparative tests using other spin trapping compounds what the effective dosage for these compounds will be."}, "[3]": {"test_system": "oxidation of low density lipoprotein in plasma", "test": "Oxidation of lipid in plasma/LDL samples measured as thiobarbituric acid reactive substance (TBAR)", "format": "biochemical", "conditions": "for % inhibition / Test (TBAR): 0.1 mM PBN, 4° C. for seven weeks; for % inhibition: actual inhibition greater than measured (assay interference by PBN)", "method": "Diabetic atherosclerosis involves the abnormal and excessive glycation of protein in the vascular wall. As discussed above for diabetic neuropathy, this involves oxygen radical production and consequent further damage to cytosolic proteins. Spin-trapping compounds will prevent this abnormal processing of cellular protein and other cellular constituents. […] Plasma samples were tested for oxidation of lipid measured using thiobarbioturic acid reactive substance (TBAR, nM) and % inhibition of oxidation calculated."}, "[4]": {"test_system": "protein oxidation and enzyme activity in aged cells/brain", "test": "Age-related protein oxidation and enzyme activity after daily administration", "format": "in vivo", "conditions": "aging; daily administration for fourteen days", "description": "The consequence of this increased level of protein oxidation is an abnormally low level of critical enzymes in the affected cells. While not all cells have been evaluated, it appears from the in vivo data presented in U.S. Ser. No. 07/589,177abandoned on Mar. 5, 1993, and U.S. Ser. No. 07/422,651, now U.S. Pat. No. 5,025,032, and reports of in vitro studies, that most, if not all, cells in the body will undergo abnormally high levels of protein oxidation. Decreases in antioxidant systems and abnormally low levels of mitochondrial function have been described. The protein oxidation is thought to arise from oxygen free radicals, largely generated via a metal catalyzed reaction within the cell. […] Organs for transplantation are obtained from donors. The success of the procedure is determined in part by the age (oxidation) related reduction in organ viability, the amount of time the organ is in preservation solution, and the status of the recipient."}}, "data": [{"smiles": "CC(C)(C)[N+]([O-])=Cc1ccccc1", "note": "[PBN, phenyl N-tert-butylnitrone]", "values": [{"measurement": "trapping of free radicals produced by adriamycin", "setting": "[1]", "result": "trap the free radicals produced by adriamycin"}, {"measurement": "enzymatic status of the aged brain", "setting": "[2]", "result": "restoring enzymatic levels to near those of the young adult"}, {"measurement": "LD50", "setting": "Toxicity tests (LD50)", "result": "not possible to determine an LD50"}, {"measurement": "toxicity", "setting": "Toxicity tests (LD50)", "result": "completely innocuous"}, {"measurement": "% inhibition", "setting": "[3]; NP132 plasma", "result": 18.2, "unit": "%"}, {"measurement": "Test (TBAR)", "setting": "[3]; NP132 plasma, control + PBS 0.55", "result": 0.45, "unit": "nM/ml"}, {"measurement": "% inhibition", "setting": "[3]; NP133 LDL", "result": 48.1, "unit": "%"}, {"measurement": "Test (TBAR)", "setting": "[3]; NP133 LDL, control + PBS 0.54", "result": 0.28, "unit": "nM/ml"}, {"measurement": "% inhibition", "setting": "[3]; NP134 plasma", "result": 22.2, "unit": "%"}, {"measurement": "Test (TBAR)", "setting": "[3]; NP134 plasma, control + PBS 0.18", "result": 0.14, "unit": "nM/ml"}, {"measurement": "% inhibition", "setting": "[3]; NP135 LDL", "result": 66.7, "unit": "%"}, {"measurement": "Test (TBAR)", "setting": "[3]; NP135 LDL, control + PBS 0.33", "result": 0.11, "unit": "nM/ml"}, {"measurement": "% inhibition", "setting": "[3]; NP135 plasma", "result": 21.9, "unit": "%"}, {"measurement": "Test (TBAR)", "setting": "[3]; NP135 plasma, control + PBS 0.32", "result": 0.25, "unit": "nM/ml"}, {"measurement": "oxidation of low density lipoprotein in plasma", "setting": "[3]; in vitro studies", "result": "inhibits or reduces oxidation of low density lipoprotein in plasma"}, {"measurement": "abnormally low level of enzyme activity", "setting": "[4]", "result": "restored to normal"}, {"measurement": "level of protein oxidation", "setting": "[4]", "result": "decreased"}]}]}
